Converted amounts (≈) assume the structure as drawn. The source made the active and inactive calls. The rule behind the calls is not given here.
Tests used:
Listeria monocytogenes = test: Antibacterial activity against Listeria monocytogenes; type: functional, organism-based
Staphylococcus aureus = test: Antibacterial activity against methicillin-resistant Staphylococcus aureus; type: functional, organism-based
Enterococcus = test: Antibacterial activity against vancomycin-resistant Enterococcus; type: functional, organism-based
Candida albicans [1] = test: Antifungal activity against fluconazole/ITC-resistant Candida albicans ATCC 10231 measured after 48 hrs by CLSI M27-A3 protocol based method; type: functional; conditions: ATCC 10231, 48 h
Candida albicans [2] = test: Antifungal activity against fluconazole/ITC-resistant Candida albicans ATCC 64124 measured after 48 hrs by CLSI M27-A3 protocol based method; type: functional; conditions: ATCC 64124, 48 h
Candida albicans [3] = test: Antifungal activity against fluconazole/ITC-susceptible Candida albicans ATCC MYA-2876 measured after 48 hrs by CLSI M27-A3 protocol based method; type: functional; conditions: ATCC MYA-2876, 48 h
Candida albicans [4] = test: Antifungal activity against fluconazole/ITC-resistant Candida albicans ATCC 90819 measured after 48 hrs by CLSI M27-A3 protocol based method; type: functional; conditions: ATCC 90819, 48 h
Candida albicans [5] = test: Antifungal activity against fluconazole/ITC-susceptible Candida albicans ATCC MYA-2310 measured after 48 hrs by CLSI M27-A3 protocol based method; type: functional; conditions: ATCC MYA-2310, 48 h
Candida albicans [6] = test: Antifungal activity against fluconazole/ITC-resistant Candida albicans ATCC MYA-1237 measured after 48 hrs by CLSI M27-A3 protocol based method; type: functional; conditions: ATCC MYA-1237, 48 h
Candida albicans [7] = test: Antifungal activity against fluconazole/ITC-resistant Candida albicans ATCC MYA-1003 measured after 48 hrs by CLSI M27-A3 protocol based method; type: functional; conditions: ATCC MYA-1003, 48 h
Nakaseomyces glabratus = test: Antifungal activity against Candida glabrata ATCC 2001 measured after 48 hrs by CLSI M27-A3 protocol based method; type: functional; conditions: CBS 138, 48 h
Pichia kudriavzevii = test: Antifungal activity against Candida krusei ATCC 6258 measured after 48 hrs by CLSI M27-A3 protocol based method; type: functional; conditions: ATCC 6258, 48 h
Candida parapsilosis = test: Antifungal activity against Candida parapsilosis ATCC 22019 measured after 48 hrs by CLSI M27-A3 protocol based method; type: functional; conditions: Lodderomyces parapsilosis, ATCC 22019, 48 h
Aspergillus flavus = test: Antifungal activity against Aspergillus flavus ATCC MYA-3631 measured after 48 hrs by CLSI M38-A2 protocol based method; type: functional; conditions: ATCC MYA-3631, 48 h
Aspergillus nidulans = test: Antifungal activity against Aspergillus nidulans ATCC 38163 measured after 48 hrs by CLSI M38-A2 protocol based method; type: functional; conditions: ATCC 38163, 48 h
Aspergillus terreus = test: Antifungal activity against Aspergillus terreus ATCC MYA-3633 measured after 48 hrs by CLSI M38-A2 protocol based method; type: functional; conditions: ATCC MYA-3633, 48 h
A549 = test: Cytotoxicity against human A549 cells after 24 hrs by resazurin based assay; type: cell-based; conditions: a549, 24 h
BEAS-2B = test: Cytotoxicity against human BEAS2B cells after 24 hrs by resazurin based assay; type: cell-based
[8] = Selectivity index, ratio of CC50 for human A549 cells to MIC for fluconazole/ITC-resistant Candida albicans ATCC 10231; type: toxicity; conditions: read-out: Selectivity Index
[9] = Selectivity index, ratio of CC50 for human A549 cells to MIC for fluconazole/ITC-resistant Candida albicans ATCC 64124; type: toxicity; conditions: read-out: Selectivity Index
[10] = Selectivity index, ratio of CC50 for human A549 cells to MIC for fluconazole/ITC-susceptible Candida albicans ATCC MYA-2876; type: toxicity; conditions: read-out: Selectivity Index
[11] = Selectivity index, ratio of CC50 for human A549 cells to MIC for fluconazole/ITC-resistant Candida albicans ATCC 90819; type: toxicity; conditions: read-out: Selectivity Index
[12] = Selectivity index, ratio of CC50 for human A549 cells to MIC for fluconazole/ITC-susceptible Candida albicans ATCC MYA-2310; type: toxicity; conditions: read-out: Selectivity Index
[13] = Selectivity index, ratio of CC50 for human A549 cells to MIC for fluconazole/ITC-resistant Candida albicans ATCC MYA-1237; type: toxicity; conditions: read-out: Selectivity Index
[14] = Selectivity index, ratio of CC50 for human A549 cells to MIC for fluconazole/ITC-resistant Candida albicans ATCC MYA-1003; type: toxicity; conditions: read-out: Selectivity Index
[15] = Selectivity index, ratio of CC50 for human A549 cells to MIC for Candida glabrata ATCC 2001; type: toxicity; conditions: read-out: Selectivity Index
[16] = Selectivity index, ratio of CC50 for human A549 cells to MIC for Candida krusei ATCC 6258; type: toxicity; conditions: read-out: Selectivity Index
[17] = Selectivity index, ratio of CC50 for human A549 cells to MIC for Candida parapsilosis ATCC 22019; type: toxicity; conditions: read-out: Selectivity Index
[18] = Selectivity index, ratio of CC50 for human A549 cells to MIC for Aspergillus flavus ATCC MYA-3631; type: toxicity; conditions: read-out: Selectivity Index
[19] = Selectivity index, ratio of CC50 for human A549 cells to MIC for Aspergillus nidulans ATCC 38163; type: toxicity; conditions: read-out: Selectivity Index
[20] = Selectivity index, ratio of CC50 for human A549 cells to MIC for Aspergillus terreus ATCC MYA-3633; type: toxicity; conditions: read-out: Selectivity Index
[21] = Hemolytic activity in mouse RBC at […] after 1 hr relative to control; type: ADME, cell-based, Erythrocyte; conditions: red blood cells (erythrocytes), read-out: Activity; also: tested at 0.48 µg/mL
[22] = Hemolytic activity in mouse RBC at […] ug/ml after 1 hr relative to control; type: ADME, cell-based, Erythrocyte; conditions: red blood cells (erythrocytes), read-out: Activity
[23] = Hemolytic activity in mouse RBC at 1.95 ug/ml after 1 hr relative to control; type: ADME, cell-based, Erythrocyte; conditions: red blood cells (erythrocytes), read-out: Activity
[24] = Hemolytic activity in mouse RBC at 3.9 ug/ml after 1 hr relative to control; type: ADME, cell-based, Erythrocyte; conditions: red blood cells (erythrocytes), read-out: Activity
[25] = Hemolytic activity in mouse RBC at 7.8 ug/ml after 1 hr relative to control; type: ADME, cell-based, Erythrocyte; conditions: red blood cells (erythrocytes), read-out: Activity
[26] = Hemolytic activity in mouse RBC at 31.3 ug/ml after 1 hr relative to control; type: ADME, cell-based, Erythrocyte; conditions: red blood cells (erythrocytes), read-out: Activity
[27] = Hemolytic activity in mouse RBC at 62.5 ug/ml after 1 hr relative to control; type: ADME, cell-based, Erythrocyte; conditions: red blood cells (erythrocytes), read-out: Activity
[28] = Selectivity index, ratio of compound concentration showing <25% hemolysis in mouse RBC to MIC for fluconazole/ITC-resistant Candida albicans ATCC 10231; type: toxicity; conditions: mouse red blood cells (RBC), read-out: Selectivity Index
[29] = Selectivity index, ratio of compound concentration showing <25% hemolysis in mouse RBC to MIC for fluconazole/ITC-resistant Candida albicans ATCC 64124; type: toxicity; conditions: mouse red blood cells (RBC), read-out: Selectivity Index
[30] = Selectivity index, ratio of compound concentration showing <25% hemolysis in mouse RBC to MIC for fluconazole/ITC-susceptible Candida albicans ATCC MYA-2876; type: toxicity; conditions: mouse red blood cells (RBC), read-out: Selectivity Index
[31] = Selectivity index, ratio of compound concentration showing <25% hemolysis in mouse RBC to MIC for fluconazole/ITC-resistant Candida albicans ATCC 90819; type: toxicity; conditions: mouse red blood cells (RBC), read-out: Selectivity Index
[32] = Selectivity index, ratio of compound concentration showing <25% hemolysis in mouse RBC to MIC for fluconazole/ITC-susceptible Candida albicans ATCC MYA-2310; type: toxicity; conditions: mouse red blood cells (RBC), read-out: Selectivity Index
[33] = Selectivity index, ratio of compound concentration showing <25% hemolysis in mouse RBC to MIC for fluconazole/ITC-resistant Candida albicans ATCC MYA-1237; type: toxicity; conditions: mouse red blood cells (RBC), read-out: Selectivity Index
[34] = Selectivity index, ratio of compound concentration showing <25% hemolysis in mouse RBC to MIC for fluconazole/ITC-resistant Candida albicans ATCC MYA-1003; type: toxicity; conditions: mouse red blood cells (RBC), read-out: Selectivity Index
[35] = Selectivity index, ratio of compound concentration showing <25% hemolysis in mouse RBC to MIC for Candida glabrata ATCC 2001; type: toxicity; conditions: mouse red blood cells (RBC), read-out: Selectivity Index
[36] = Selectivity index, ratio of compound concentration showing <25% hemolysis in mouse RBC to MIC for Candida krusei ATCC 6258; type: toxicity; conditions: mouse red blood cells (RBC), read-out: Selectivity Index
[37] = Selectivity index, ratio of compound concentration showing <25% hemolysis in mouse RBC to MIC for Candida parapsilosis ATCC 22019; type: toxicity; conditions: mouse red blood cells (RBC), read-out: Selectivity Index
[38] = Selectivity index, ratio of compound concentration showing <25% hemolysis in mouse RBC to MIC for Aspergillus flavus ATCC MYA-3631; type: toxicity; conditions: mouse red blood cells (RBC), read-out: Selectivity Index
[39] = Selectivity index, ratio of compound concentration showing <25% hemolysis in mouse RBC to MIC for Aspergillus nidulans ATCC 38163; type: toxicity; conditions: mouse red blood cells (RBC), read-out: Selectivity Index
[40] = Selectivity index, ratio of compound concentration showing <25% hemolysis in mouse RBC to MIC for Aspergillus terreus ATCC MYA-3633; type: toxicity; conditions: mouse red blood cells (RBC), read-out: Selectivity Index

## Fc1ccc(N/N=C/c2ccc(-c3cccc(/C=N/Nc4ccc(F)cc4F)c3)cc2)c(F)c1
Listeria monocytogenes
  Activity: inactive
Staphylococcus aureus
  Activity: inactive
Enterococcus
  Activity: inactive
Candida albicans [1]
  MIC: 3.9 µg/mL (≈ 8.43 µM)
Candida albicans [2]
  MIC: 7.8 µg/mL (≈ 16.9 µM)
Candida albicans [3]
  MIC: 15.6 µg/mL (≈ 33.7 µM)
Candida albicans [4]
  MIC: 15.6 µg/mL (≈ 33.7 µM)
Candida albicans [5]
  MIC: 15.6 µg/mL (≈ 33.7 µM)
Candida albicans [6]
  MIC: 7.8 µg/mL (≈ 16.9 µM)
Candida albicans [7]
  MIC: 7.8 µg/mL (≈ 16.9 µM)
Nakaseomyces glabratus
  MIC: 15.6 µg/mL (≈ 33.7 µM)
Pichia kudriavzevii
  MIC: 1.95 µg/mL (≈ 4.22 µM)
Candida parapsilosis
  MIC: 31.3 µg/mL (≈ 67.7 µM)
Aspergillus flavus
  MIC: 7.8 µg/mL (≈ 16.9 µM)
Aspergillus nidulans
  MIC: 7.8 µg/mL (≈ 16.9 µM)
Aspergillus terreus
  MIC: 31.3 µg/mL (≈ 67.7 µM)
A549
  CC50: 16.4 µg/mL (≈ 35.5 µM)
BEAS-2B
  CC50: 16.9 µg/mL (≈ 36.5 µM)
[8]
  selectivity ratio: 4.2
[9]
  selectivity ratio: 2.1
[10]
  selectivity ratio: 1.1
[11]
  selectivity ratio: 1.1
[12]
  selectivity ratio: 1.1
[13]
  selectivity ratio: 2.1
[14]
  selectivity ratio: 2.1
[15]
  selectivity ratio: 1.1
[16]
  selectivity ratio: 8.4
[17]
  selectivity ratio: 0.5
[18]
  selectivity ratio: 2.1
[19]
  selectivity ratio: 2.1
[20]
  selectivity ratio: 0.5
[21]
  hemolysis at 1 h, […]: 1.6%
[22]; at 15.6 µg/mL
  hemolysis at 1 h, 15.6 ug/ml: 14.6%
[22]
  hemolysis at 1 h, 0.975 ug/ml: 0%
[23]
  hemolysis at 1 h, 1.95 ug/ml: 4.5%
[24]
  hemolysis at 1 h, 3.9 ug/ml: 4.2%
[25]
  hemolysis at 1 h, 7.8 ug/ml: 8.6%
[26]
  hemolysis at 1 h, 31.3 ug/ml: 14.6%
[27]
  hemolysis at 1 h, 62.5 ug/ml: 23.5%
[28]
  selectivity ratio: 1 to 32
[29]
  selectivity ratio: 1 to 32
[30]
  selectivity ratio: 1 to 32
[31]
  selectivity ratio: 1 to 32
[32]
  selectivity ratio: 1 to 32
[33]
  selectivity ratio: 1 to 32
[34]
  selectivity ratio: 1 to 32
[35]
  selectivity ratio: 1 to 32
[36]
  selectivity ratio: 1 to 32
[37]
  selectivity ratio: 1 to 32
[38]
  selectivity ratio: 1 to 32
[39]
  selectivity ratio: 1 to 32
[40]
  selectivity ratio: 1 to 32
